Patent US9629828B2, “Methods of treating traveler's diarrhea and hepatic encephalopathy” (priority 2008, dated 2017)
“Also recorded” adds a separate entry of the source. Like-named read-outs stand apart in the source and are kept apart here.

Tests used:
[1] = system: subjects with a history of recurrent, overt, episodic HE; assay: Second study: changes in Conn scores and asterixis grades; format: in vivo, human
Text: Normalizing for subject exposure, this represents a hospitalization rate of 0.60 event/PEY. A total of 59 were hospitalized due HE episodes (e.g., HE-caused). Normalizing for subject exposure, this represents an HE-caused hospitalization rate of 0.29 event/PEY. […] All subjects were capable of worsening over time, and 24/266 subjects (9.0%) did so by 1 or 2 grades.
The last visit for the second study is the last visit recorded for the interim analysis.
A total of 65.5% of subjects (220 of 337) had no change in Conn score and 21.1% (71 of 337) had improvements in Conn score from baseline to last visit. […] No change from baseline in asterixis grade was reported for 75.2% of subjects (252 of 337), and 17.3% had improvements.

[2] = both, human, in vivo
Procedure: Two studies evaluated the pharmacokinetics of rifaximin in patients with hepatic impairment. […] Because of the limited systemic absorption of rifaximin, no specific dosing adjustments are recommended for patients with hepatic insufficiency.
A pharmacokinetic investigation was performed in subjects with HE in a dose-finding study.

cytochrome P450 2D6 = biological target: T1, cytochrome P450 2D6 (Homo sapiens, UniProt P10635); assay: In vitro cytochrome P450 inhibition; format: in vitro ADME; conditions: 2 to 200 ng/mL
T1 construct: from tissue; host or cells: human liver fractions

CYP3A4 [3] = biological target: T2, CYP3A4 (Homo sapiens, UniProt P08684); assay: In vitro cytochrome P450 inhibition; format: in vitro ADME; conditions: 2 to 200 ng/mL
T2 construct: from tissue; host or cells: human liver fractions

P-gp transporter = P-gp transporter (Homo sapiens, UniProt P08183); assay: In vitro P-gp transporter inhibition; format: in vitro ADME; conditions: 50 μM
rabbits = conditions: rabbit, in vivo
Text: (§1) These effects include cleft palate, agnatha, jaw shortening, hemorrhage, eye partially open, small eyes, brachygnathia, incomplete ossification, and increased thoracolumbar vertebrae.

rats = conditions: rat, in vivo
Text: as §1

[4] = system: liver transplant patients who presented with HE; assay: Chart review of 39 liver transplant patients with HE; format: in vivo, human
[5] = system: Gram-positive and Gram-negative bacteria, such as Escherichia coli; assay: In vitro antibacterial activity / susceptibility (NCCLS agar dilution M7-A6); format: cell-based
Procedure: In vitro susceptibility testing was performed according to the National Committee for Clinical Laboratory Standards (NCCLS) agar dilution method M7-A612.
Methods for dilution antimicrobial susceptibility tests for bacteria that grow aerobically. National Committee for Clinical Laboratory Standards, Sixth Edition, Wayne Pa. Approved Standard NCCLS Document M7-A6 Jan.

Shigella flexneri 2a = assay: Open-label Shigella flexneri 2a challenge study; format: in vivo, human; conditions: 13 treated subjects, 200 mg every 8 hours 3 days
[6] = Post approval adverse reactions; format: in vivo, human; conditions: post approval use
Text: Because these reactions are reported voluntarily from a population of unknown size, estimates of frequency cannot be made.

[7] = system: subjects with a history of recurrent, overt, episodic HE; assay: Second study: changes in Conn scores and asterixis grades; format: in vivo, human; conditions: 266 subjects
in vitro = conditions: human, plasma
CYP3A4 [8] = assay: Clinical drug interaction: rifaximin 550 mg TID on oral midazolam
[9] = all rifaximin experience, 337 subjects

T2 sequence (P08684 whole entry): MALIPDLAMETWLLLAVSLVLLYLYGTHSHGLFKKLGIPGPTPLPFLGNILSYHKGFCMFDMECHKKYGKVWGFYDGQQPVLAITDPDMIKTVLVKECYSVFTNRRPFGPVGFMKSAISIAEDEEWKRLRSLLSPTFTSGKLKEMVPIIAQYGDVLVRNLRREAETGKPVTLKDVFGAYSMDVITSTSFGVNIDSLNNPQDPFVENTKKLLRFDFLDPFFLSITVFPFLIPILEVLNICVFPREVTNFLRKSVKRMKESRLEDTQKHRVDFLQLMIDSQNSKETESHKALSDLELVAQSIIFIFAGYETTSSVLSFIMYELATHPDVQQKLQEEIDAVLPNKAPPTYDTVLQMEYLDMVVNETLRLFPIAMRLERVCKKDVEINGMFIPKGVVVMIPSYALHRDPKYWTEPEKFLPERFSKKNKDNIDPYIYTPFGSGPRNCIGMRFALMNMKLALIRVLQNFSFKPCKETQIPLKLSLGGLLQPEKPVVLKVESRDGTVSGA
P-gp transporter, sequence (P08183 whole entry): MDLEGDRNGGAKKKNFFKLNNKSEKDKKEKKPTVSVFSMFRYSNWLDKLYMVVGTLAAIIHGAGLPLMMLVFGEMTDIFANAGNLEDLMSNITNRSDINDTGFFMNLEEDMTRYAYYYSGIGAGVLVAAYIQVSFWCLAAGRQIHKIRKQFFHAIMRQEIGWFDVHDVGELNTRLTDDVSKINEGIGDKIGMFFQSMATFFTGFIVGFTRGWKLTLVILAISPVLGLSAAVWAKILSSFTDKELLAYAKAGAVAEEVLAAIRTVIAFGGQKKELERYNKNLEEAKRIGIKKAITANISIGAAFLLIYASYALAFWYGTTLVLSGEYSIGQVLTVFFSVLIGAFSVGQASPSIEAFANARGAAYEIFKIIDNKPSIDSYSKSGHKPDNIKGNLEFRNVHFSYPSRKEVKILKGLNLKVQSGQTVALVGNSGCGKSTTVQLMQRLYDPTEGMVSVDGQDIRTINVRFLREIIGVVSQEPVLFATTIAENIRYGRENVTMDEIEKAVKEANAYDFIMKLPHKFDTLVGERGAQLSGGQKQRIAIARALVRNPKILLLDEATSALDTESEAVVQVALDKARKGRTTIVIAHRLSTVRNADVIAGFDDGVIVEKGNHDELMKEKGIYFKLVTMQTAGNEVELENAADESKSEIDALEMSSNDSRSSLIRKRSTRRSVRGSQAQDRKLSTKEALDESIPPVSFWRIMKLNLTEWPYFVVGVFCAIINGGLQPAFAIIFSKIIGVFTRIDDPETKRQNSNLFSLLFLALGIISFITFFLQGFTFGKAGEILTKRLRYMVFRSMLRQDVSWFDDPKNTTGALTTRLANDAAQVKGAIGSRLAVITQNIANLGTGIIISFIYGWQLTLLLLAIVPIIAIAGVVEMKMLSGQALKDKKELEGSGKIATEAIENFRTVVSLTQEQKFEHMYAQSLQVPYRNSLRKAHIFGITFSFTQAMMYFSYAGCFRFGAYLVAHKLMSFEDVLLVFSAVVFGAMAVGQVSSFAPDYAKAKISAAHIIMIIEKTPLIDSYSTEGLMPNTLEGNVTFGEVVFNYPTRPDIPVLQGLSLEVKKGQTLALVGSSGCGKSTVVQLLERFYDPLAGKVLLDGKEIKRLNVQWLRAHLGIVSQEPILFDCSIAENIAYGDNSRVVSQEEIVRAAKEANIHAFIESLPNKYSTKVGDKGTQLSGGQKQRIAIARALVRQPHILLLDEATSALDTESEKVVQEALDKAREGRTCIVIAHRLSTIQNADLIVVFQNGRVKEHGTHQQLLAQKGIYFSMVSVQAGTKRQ
T1 sequence (P10635 whole entry): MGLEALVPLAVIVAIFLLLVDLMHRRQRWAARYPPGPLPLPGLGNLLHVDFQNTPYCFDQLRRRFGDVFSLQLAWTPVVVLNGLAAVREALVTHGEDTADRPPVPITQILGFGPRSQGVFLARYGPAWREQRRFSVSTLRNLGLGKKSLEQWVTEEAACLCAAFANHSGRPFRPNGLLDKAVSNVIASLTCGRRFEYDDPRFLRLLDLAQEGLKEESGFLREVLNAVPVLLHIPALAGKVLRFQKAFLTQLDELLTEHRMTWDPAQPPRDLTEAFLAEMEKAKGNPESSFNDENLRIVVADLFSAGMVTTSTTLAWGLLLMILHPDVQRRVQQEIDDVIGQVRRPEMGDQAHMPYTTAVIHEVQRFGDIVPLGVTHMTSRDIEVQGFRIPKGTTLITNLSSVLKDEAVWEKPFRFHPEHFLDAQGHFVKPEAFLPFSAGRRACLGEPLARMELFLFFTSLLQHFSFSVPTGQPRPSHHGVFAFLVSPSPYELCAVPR

## CO[C@H]1/C=C/O[C@@]2(C)Oc3c(C)c(O)c4c(O)c(c5c(nc6cc(C)ccn65)c4c3C2=O)NC(=O)/C(C)=C\C=C\[C@H](C)[C@H](O)[C@@H](C)[C@@H](O)[C@@H](C)[C@H](OC(C)=O)[C@@H]1C [rifaximin, (2S,16Z,18E,20S,21S,22R,23R,24R,25 S,26S,27S,28E)-5,6,21,23,25-pentahydroxy-27-methoxy-2,4,11,16,20,22,24,26-octamethyl-2,7-(epoxypentadeca-[1,11,13]trienimino)benzofuro[4,5-e]pyrido[1,2-á]-benzimidazole-1,15(2H)-dione,25-acetate]
[1]; 67 subjects
  subjects improved among those entering with asterixis scores of 1, 2, or 3: 64.2%
  subjects with 1-grade asterixis improvement: 50.7%
  subjects with 2-grade asterixis improvement: 6.0%
  subjects with 3-grade asterixis improvement: 7.5%
[1]; 70 subjects
  subjects with worsening asterixis, continuing rifaximin: 8.6%
[1]; 84 subjects
  subjects improved among those entering with Conn scores of 1, 2, or 3: 64.3%
  subjects with 1-grade Conn improvement: 56.0%
  subjects with 2-grade Conn improvement: 8.3%
[1]; 99 subjects
  subjects improved in asterixis grade among those entering with grade ≧1: 58.6%
[1]; 118 subjects
  subjects improved to Conn score 0 among those entering with Conn ≧1: 62.2%
[1]; 196 subjects
  subjects with worsening asterixis, new rifaximin: 6.1%
[1]; 266 subjects
  subjects with Conn worsening by 1 or 2 grades: 9.0%
  subjects with improvements in Conn scores at last visit: 20.3%
  subjects with improvements in asterixis scores: 16.2%
  subjects with mental status maintained or improved: 91%
  subjects with neuromotor symptoms maintained: 83.3%
  subjects with no change in Conn score at last visit: 70.7%
  subjects with no change in asterixis at last visit: 77.1%
[1]; all rifaximin experience
  subjects with improvements in asterixis grade: 17.3%
  subjects with maintenance or improvements in asterixis grades: > 90%
[1]; [9]
  subjects with improvements in Conn score: 21.1%
  subjects with no change in Conn score: 65.5%
  subjects with no change in asterixis grade: 75.2%
[1]; all rifaximin experience, up to 840 days
  subjects with maintenance or improvement in Conn scores: > 85%
[2]
  mean amount recovered in 24-h urine after last dose: 0.06-0.1 % of dose
[2]; 7 days
  administered dose recovered in urine: less than 0.1%
Cytochrome P450 2D6
  inhibition of 2D6: did not inhibit
CYP3A4 [3]
  inhibition of CYP3A4: did not inhibit
P-gp transporter
  inhibition of transport of a model P-gp substrate: only partially inhibited
rabbits
  fertility / harm to the fetus: no evidence of impaired fertility or harm to the fetus
rats
  fertility / harm to the fetus: no evidence of impaired fertility or harm to the fetus
[4]; 15 rifaximin, 24 lactulose patients
  hospitalizations reported: 3
[4]; human, in vivo
  average length of stay: 3.5 days
[5]
  in vitro antibacterial activity: active
[5]; listed as Rifaximin
  in vitro antibacterial activity: in vitro antimicrobial activity; also recorded: broad spectrum of in vitro antibacterial activity
Shigella flexneri 2a
  rescue treatment with ciprofloxacin: eight subjects received rescue treatment
[6]
  C. difficile-associated colitis: have been reported
[7]
  subjects with worsening asterixis by 1, 2, or 4 grades: 6.8%
In vitro
  fraction unbound: 0.447
CYP3A4 [8]
  CYP3A4 induction in vivo / midazolam exposure: only slightly reduced exposure; also recorded: weak inducer of CYP3A4
